Like-named read-outs stand apart in the source and are kept apart here.
What was measured:
HT-29 colon cancer cells = assay: Cell growth assay (WST-1), combination analysed with CombiTool; type: cell-based; conditions: for synergistic activity on growth inhibition in combination with HmdU: 5-FU related compound used with HmdU; for synergistic activity on growth inhibition when combined with 5-FU: HmdU related drug combined with 5-FU
Procedure: In a typical cell growth assay, cells were plated in 96-well plates on Day 0, and indicated concentrations of drugs were added on Day 1. Each condition was replicated in triplicate. Subsequently, quantities of metabolically active cells in each well were measured by WST-1 assay on Day 4. The WST-1 assay (assay reagents from Roche) measures the concentration of formazan converted from a tetrazolium salt, WST-1, by a mitochondrial succinate-tetrazolium-reductase system.
CombiTool is a computer program for the analysis of combination effects of biologically active agents and is described in Dressler et al. (Computers and Biomedical Research (1999) 32:145-160). It performs model calculations and an analysis of experimental combination effects for two or three agents according to both the Bliss independence and the Loewe additivity criteria. Zero interaction response surfaces are calculated from single-agent dose-response relations and compared to experimental combination data. The calculation of response surfaces for Loewe additivity is based on a new approach which combines the implicit definition equation in terms of doses alone with single-agent dose-response relations. CombiTool has a built-in graphics facility which allows for the direct visualization of the response surfaces or the corresponding contour plots and the experimental data.
In the present example, the in vitro effects of 5-FU and HmdU treatment were assessed in several cell lines. […] FIG. 1B show the results interpreted with the CombiTool program which indicates synergistic experimental data by large gray circles above the lower additive results when the drugs are used alone. […] FIGS. 1C and 1D show similar results from experiments in the colon cancel cell line, HCT116.
Further testing was performed on the HT-29 cell line to assess whether compounds that are structurally and/or functionally related to 5-FU and HmdU also display synergistic activity on growth inhibition. In a series of experiments 5-FU was tested with: (1) 5-Hydroxymethyluracil (HmU), a base form which is subsequently converted to a nucleoside form, HmdUrd; (2) Deoxyuridine (dUrd), a nucleoside which is different from HmdU by the lack of modification at the 5-carbon position; and (3) 5-Hydroxydeoxyuridine (OHdU), a nucleoside which is different from HmdU by the lack of a methyl group in the 5-carbon modification. […] See FIG. 7A-7D (HmU—obtained from Cayman Chemical and Aldrich Chemical Company, respectively+5FU), FIG. 8A-8B (dUrd+5FU), and FIG. 9A-9B (OHdU+5FU).
Another set of experiments tested several alternative 5-FU agents in combination with HmdU to determine if synergy exists when the agents were administered in combination. The 5-FU related compounds used with HmdU were: (1) 5-Fluorodeoxyuridine (5-FdU), a deoxyribonucleoside (2) Deoxyadenosine (dA), an agent capable of decreasing dTTP; and (3) Raltitrexed, a structural analog of 5,10-methylene tetrahydrofolate (CH2THF), and a specific inhibitor of thymidylate synthase (TS). […] See FIGS. 11 (dA) and 12 (Raltitrexed).

HT-29 cells = assay: Cell cycle analysis of synchronized cells; type: cell-based; conditions: 48 h of treatment with 5-FU and HmdU
Procedure: Panel A is a cell cycle analysis of synchronized HT-29 cells with 5-FU, HmdU, and combined 5-FU/HmdU treatment over a period of two days.
First, clonogenic assays were performed to determine the time course of the combination of 5-FU and HmdU. […] Subsequently, cell cycle distribution was assessed.

HT-29 = assay: Caspase inhibitor rescue from cell killing by 5-FU and HmdU; type: cell-based; conditions: caspase inhibitor added
Procedure: Further, experiments were performed to uncover whether the combined treatment with 5-FU and HmdU induces PARP1 cleavage, which would indicate that apoptosis is the pathway responsible for the cytotoxic effects. […] Both of the results in FIGS. 17 and 18 indicate that the cell killing by the combined drug treatment is not via apoptosis. However, the combination has a synergistic effect on the cytotoxicities of 5-FU and HmdU, and derivatives thereof.

[1] = test system: cells treated with 5-FU and HmdU; assay: Effect of PARP-1 inhibitors on cytotoxicity of 5-FU and HmdU; conditions: PARP-1 inhibitor added
From the text: (§1) Taking account of effect of 3-aminobenzamide on cell cycle shown FIG. 14B, effects of PARP-1 inhibitors on cytotoxicity were examined.

[2] = test system: cells treated with 5-FU and HmdU
From the text: as §1

| SMILES | synergistic activity on growth inhibition in combination with HmdU (HT-29 colon cancer cells) | synergistic activity on growth inhibition when combined with 5-FU (HT-29 colon cancer cells) | other results |
| --- | --- | --- | --- |
| Nc1ncnc2c1ncn2[C@H]1C[C@H](O)[C@@H](CO)O1 [dA, Deoxyadenosine] | did not show any significant synergistic effects | – | – |
| O=c1[nH]c(=O)n([C@H]2C[C@H](O)[C@@H](CO)O2)cc1F [5-FdU, 5-Fluorodeoxyuridine] | strong synergy | – | – |
| Cn1c(=O)c2c(ncn2C)n(C)c1=O [caffeine] | – | – | effect of added agent on the cell cycle (HT-29 cells): overcomes G2/M arrest |
| CC(C)[C@H](NC(=O)c1ccc2ccccc2n1)C(=O)N[C@@H](CC(=O)O)C(=O)COc1c(F)cccc1F [QVD] | – | – | rescue from cell killing by the 5-FU and HmdU treatment (HT-29): did not rescue |
| NC(=O)c1cccc(N)c1 [3-aminobenzamide] | – | – | effect of added agent on the cell cycle (HT-29 cells): allows cells to complete DNA replication; effect on growth inhibition by 5-FU and HmdU [1]: rescued cells from growth inhibition |
| O=c1ccn([C@H]2C[C@H](O)[C@@H](CO)O2)c(=O)[nH]1 [dUrd, Deoxyuridine] | – | did not show any significant synergistic effects | – |
| O=c1[nH]c(=O)n([C@H]2C[C@H](O)[C@@H](CO)O2)cc1O [OHdU, 5-Hydroxydeoxyuridine] | – | did not show any significant synergistic effects | – |
| Nc1ccc2c3c(cccc13)C(=O)NC2=O [4-amino-1,8-naphtalimide] | – | – | effect on growth inhibition by 5-FU and HmdU [2]: rescued cells from growth inhibition |
| O=c1[nH]cc(CO)c(=O)[nH]1 [HmU, 5-Hydroxymethyluracil] | – | did not show any significant synergistic effects | – |
| Cc1nc2ccc(CN(C)c3ccc(C(=O)N[C@@H](CCC(=O)O)C(=O)O)s3)cc2c(=O)[nH]1 [Raltitrexed] | did not show any significant synergistic effects | – | – |

— patent publication US8617540B2, “Combinational chemotherapy treatment” (Fox Chase Cancer Center, priority 2009, dated 2013)
